# Results taken from patent US10231453B2, “5-substituted imidazole derivatives” (BAYER CROPSCIENCE AKTIENGESELLSCHAFT, priority 2015, dated 2019).
# Read-outs that look alike come from different tables or passages of the source. Marks after values point to notes of the source that are not given here.
# Experiments:
# [1] = Measurement of LogP values by HPLC on reversed phase columns (EEC directive 79/831 Annex V.A8); type: physicochemical; conditions: for chromatographic logP: method [a]: LC-UV, acidic range, 0.1% formic acid in water and acetonitrile as eluent
# Description: Measurement of Log P values was performed as outlined above.
# [2] = tested on: Uromyces appendiculatus; assay: In vivo preventive test on Uromyces appendiculatus (bean rust), Examples G and R7; conditions: 264 h, preventive spray, evaluated 11 days after inoculation
# [3] = tested on: Puccinia recondita; assay: In vivo preventive test on Puccinia recondita (brown rust on wheat), Examples C and R3; conditions: preventive spray, evaluated 11 days after inoculation; for pest or weed control at 100 ppm / pest or weed control at 500 ppm: Puccinia recondita, 264 h
# [4] = tested on: Septoria tritici; assay: In vivo preventive test on Septoria tritici (leaf spot on wheat), Examples E, Q3 and R5; conditions: Zymoseptoria tritici, 576 h, preventive spray, evaluated 24 days after inoculation
# [5] = tested on: Sphaerotheca fuliginea; assay: In vivo preventive test on Sphaerotheca fuliginea (powdery mildew on cucurbits), Examples F and R6; conditions: Podosphaera fuliginea, 360 h, preventive spray, evaluated 15 days after inoculation
# [6] = Example R7, bean, read-out: Efficacy in %
# [7] = Example R7, bean, 500 ppm, read-out: Efficacy in %
# [8] = Example R3, wheat, 100 ppm, read-out: Efficacy in %
# [9] = Example R3, wheat, 500 ppm, read-out: Efficacy in %
# [10] = Example R5, wheat, read-out: Efficacy in %
# [11] = Example R5, wheat, 500 ppm, read-out: Efficacy in %
# [12] = Table 2, compounds of formula (XVII)
# [13] = Example R6, gherkin, read-out: Efficacy in %
# [14] = Example R6, gherkin, 500 ppm, read-out: Efficacy in %
# [15] = 500 ppm of active ingredient, wheat, read-out: efficacy
# [16] = 500 ppm of active ingredient, bean, read-out: efficacy
# [17] = 500 ppm of active ingredient, gherkin, read-out: efficacy
smiles,measurement,setting,value
N#Cc1cncn1CC(O)(Cc1ccc(F)cc1)C1(Cl)CCC1 (stereo not drawn) [Example I-159],chromatographic logP,[1]; Table 1,2.98
OC(Cc1ccccc1F)(Cn1ccnc1Cl)C1(Cl)CC1 (stereo not drawn) [drawing 168],pest or weed control at 100 ppm,[2]; [6],0%
same,pest or weed control at 500 ppm,[2]; [7],0%
OC(Cc1ccccc1Cl)(Cn1cnc(Br)c1)C1(Cl)CC1 (stereo not drawn) [drawing 159],pest or weed control at 100 ppm,[2]; [6],56%
same,pest or weed control at 500 ppm,[2]; [7],47%
C#Cc1cn(CC(O)(Cc2ccccc2F)C2(Cl)CC2)cn1 (stereo not drawn) [drawing 93],pest or weed control at 100 ppm,[3]; [8],0%
same,pest or weed control at 500 ppm,[3]; [9],13%
N#Cc1cn(CC(O)(Cc2ccccc2Cl)C2(Cl)CC2)cn1 (stereo not drawn) [drawing 127],pest or weed control at 100 ppm,[4]; [10],44%
same,pest or weed control at 500 ppm,[4]; [11],78%
OC(Cc1ccccc1F)(Cn1cnc(Cl)c1)C1(Cl)CC1 (stereo not drawn) [drawing 95],pest or weed control at 100 ppm,[3]; [8],0%
same,pest or weed control at 500 ppm,[3]; [9],33%
OC(Cc1ccccc1F)(Cn1cnc(Cl)c1)C1(Cl)CC1 (stereo not drawn) [drawing 167],pest or weed control at 100 ppm,[2]; [6],0%
same,pest or weed control at 500 ppm,[2]; [7],0%
"N#Cc1cncn1CC(O)(Cc1ccccc1F)C1(Cl)CC1 (single isomer, unassigned) [Example I-132]",LogP,[1],2.59^[a]
N#Cc1cncn1CC(=O)CC1CC1 [XVII-12],chromatographic logP,[1]; [12],1.27
"N#Cc1cncn1CC(O)(Cc1ccccc1F)C1(Cl)CC1 (single isomer, unassigned) [Example I-133]",LogP,[1],2.59^[a]
N#Cc1cn(CC(O)(Cc2ccccc2F)C2(Cl)CC2)cn1 (stereo not drawn) [drawing 104],pest or weed control at 100 ppm,[3]; [8],11%
same,pest or weed control at 500 ppm,[3]; [9],78%
CC(C)(C)CC(=O)Cn1cncc1C#N [XVII-13],chromatographic logP,[1]; [12],1.88
N#Cc1cn(CC(O)(Cc2ccccc2Cl)C2(Cl)CC2)cn1 (stereo not drawn) [drawing 163],pest or weed control at 100 ppm,[2]; [6],25%
same,pest or weed control at 500 ppm,[2]; [7],50%
C#Cc1cn(CC(O)(Cc2ccccc2F)C2(Cl)CC2)cn1 (stereo not drawn) [drawing 146],pest or weed control at 100 ppm,[5]; [13],0%
same,pest or weed control at 500 ppm,[5]; [14],60%
N#Cc1cncn1CC(O)(Cc1cccc(Cl)c1F)C1(Cl)CC1 (stereo not drawn) [Example I-145],chromatographic logP,[1]; Table 1,3.02
O=C(Cn1cncc1I)C1(Cl)CC1 [XVII-10],chromatographic logP,[1]; [12],0.7
N#Cc1cncn1CC(O)(Cc1ccc(-c2ccccc2)cc1)C1(Cl)CC1 (stereo not drawn) [Example I-63],chromatographic logP,[1]; Table 1,3.68
C#Cc1cn(CC(O)(Cc2ccccc2F)C2(Cl)CC2)cn1 (stereo not drawn) [drawing 129],pest or weed control at 100 ppm,[4]; [10],63%
same,pest or weed control at 500 ppm,[4]; [11],63%
N#Cc1cncn1CC(O)(C(F)c1ccccc1F)C1(Cl)CC1 (stereo not drawn) [Example I-31],pest or weed control at 500 ppm,[4]; [15],90 to 100%
same,pest or weed control at 500 ppm,[2]; [16],90 to 100%
same,pest or weed control at 500 ppm,[3]; [15],90 to 100%
same,pest or weed control at 500 ppm,[5]; [17],90 to 100%
OC(Cc1ccccc1Cl)(Cn1cnc(Br)c1)C1(Cl)CC1 (stereo not drawn) [drawing 123],pest or weed control at 100 ppm,[4]; [10],75%
same,pest or weed control at 500 ppm,[4]; [11],83%
N#Cc1cn(CC(O)(Cc2ccccc2F)C2(Cl)CC2)cn1 (stereo not drawn) [drawing 157],pest or weed control at 100 ppm,[5]; [13],95%
same,pest or weed control at 500 ppm,[5]; [14],95%
C#Cc1cn(CC(O)(Cc2ccccc2F)C2(Cl)CC2)cn1 (stereo not drawn) [drawing 165],pest or weed control at 100 ppm,[2]; [6],0%
same,pest or weed control at 500 ppm,[2]; [7],0%
OC(Cc1ccccc1F)(Cn1cnc(Cl)c1)C1(Cl)CC1 (stereo not drawn) [drawing 148],pest or weed control at 100 ppm,[5]; [13],60%
same,pest or weed control at 500 ppm,[5]; [14],98%
N#Cc1cncn1CC(O)(Cc1ccc(Cl)cc1Cl)C1(Cl)CC1 (stereo not drawn) [Example I-52],pest or weed control at 500 ppm,[4]; [15],90 to 100%
same,pest or weed control at 500 ppm,[2]; [16],90 to 100%
same,pest or weed control at 500 ppm,[3]; [15],80 to 89%
same,pest or weed control at 500 ppm,[5]; [17],90 to 100%
OC(Cc1ccccc1F)(Cn1ccnc1Cl)C1(Cl)CC1 (stereo not drawn) [drawing 149],pest or weed control at 100 ppm,[5]; [13],0%
same,pest or weed control at 500 ppm,[5]; [14],78%
OC(Cc1ccc(Cl)cc1F)(Cn1cnc(Br)c1)C1(Cl)CC1 (racemic) [drawing 98],Efficacy in %,"[3]; Example R3, wheat, 100 ppm",0%
same,Efficacy in %,"[3]; Example R3, wheat, 500 ppm",94%
N#Cc1cncn1CC(O)(Cc1ccc(Cl)cc1F)C1CC1 (stereo not drawn) [Example I-115],pest or weed control at 500 ppm,[4]; [15],90 to 100%
same,pest or weed control at 500 ppm,[2]; [16],90 to 100%
same,pest or weed control at 500 ppm,[3]; [15],90 to 100%
same,pest or weed control at 500 ppm,[5]; [17],90 to 100%
Cc1cn(CC(O)(Cc2ccccc2Cl)C2(Cl)CC2)cn1 (stereo not drawn) [drawing 89],pest or weed control at 100 ppm,[3]; [8],29%
same,pest or weed control at 500 ppm,[3]; [9],86%
N#Cc1cn(CC(O)(Cc2ccccc2F)C2(Cl)CC2)cn1 (stereo not drawn) [drawing 176],pest or weed control at 100 ppm,[2]; [6],25%
same,pest or weed control at 500 ppm,[2]; [7],56%
OC(Cc1ccccc1F)(Cn1cnc(Cl)c1)C1(Cl)CC1 (stereo not drawn) [drawing 131],pest or weed control at 100 ppm,[4]; [10],0%
same,pest or weed control at 500 ppm,[4]; [11],93%
OC(Cc1ccccc1F)(Cn1ccnc1Cl)C1(Cl)CC1 (stereo not drawn) [drawing 132],pest or weed control at 100 ppm,[4]; [10],20%
same,pest or weed control at 500 ppm,[4]; [11],96%
